Experimental data published in patent US20250025451A1, “TREATMENT OF CANCER WITH KDM4 INHIBITORS” (Celgene Corporation, priority 2021, published 2025).
“And” between values parts separate entries of the source, which are not always exact repeats. Identical values can stand only once. Like-named read-outs stand apart in the source and are kept apart here.

Legend:
[1] = tested on: immature and mature cell markers in SU60 xenograft tumor cells; experiment: single cell gene expression analysis (RT-qPCR) of SU60 xenograft tumors; assay type: in vivo; settings: treated vs vehicle
Excerpt: FIG. 22 illustrates the heatmap representation of single cells gene expression analysis (RT-qPCR) from SU60 xenograft tumors treated with vehicle control or Compound 1. A) Heatmap representation of single cells gene expression analysis (RT-qPCR) from SU60 xenograft tumors treated with vehicle control or Compound 1. Gene expression levels are colored-coded with red for high expression, green low expression and gray not expressed. Three clusters of cells were identified based on shared patterns of gene expression using a gene-set of immature and mature cell markers. […] The top dendrogram clusters genes with similar expression pattern across all cells. Gene expression (in Ct values) was mean-centered at 0 and divided by 2.5 time the standard deviation. B) This graph represents the total number of vehicle-treated and compound 1 treated cells within each cluster. P-values (Fisher's exact test) are represented on top of the bars.
Vehicle control and Compound 1-treated samples were characterized by single cell transcriptional profiling with a gene-set designed to discriminate immature colon progenitor cells and more mature cell-types (Dalerba, 2011). […] Using hierarchical clustering analysis, three clusters based on expression of a subset of immature and mature cell markers were identified. […]

[2] = tested on: colorectal cancer PDX models; experiment: culture-based viability inhibition assay, colorectal cancer PDX models; assay type: cell-based; settings: for IC50: read-out: IC50 (range over sensitive models); for Sensitive to Compound 1 (models sensitive/tested): sensitive = IC50<1 μM
Procedure: (§1) A panel of 13 colorectal cancer PDX models and 6 colorectal cancer organoid PDX models were tested for their sensitivity to Compound 1 in culture-based viability inhibition assays. The MSI-H status of the studied colorectal cancer cell lines and their respective mutations of the MMR path genes are shown in FIG. 19.

[3] = tested on: FS53 patient-derived breast cancer organoid model; experiment: organoid colony formation assay, FS53; assay type: cell-based, human
Procedure: (§2) The IC50 values for Compound 1 inhibition of colony formation and viability were determined for the patient-derived colon cancer organoid models: SU60, T002C, SU62, SU34, SU103, T03SC, and SU106, patient-derived pancreatic cancer organoid models PA016SF, PA0143F, T016P, and T028P, and a patient-derived breast cancer organoid model FS5S3.
(§3) Colony formation and viability assays were performed in multiwell plates seeded with organoids using an in vitro culture system composed of a Matrigel layer, media containing a defined set of growth factors, and co-culture with Wnt3 A-secreting mouse embryonic fibroblasts. Assays were initiated by adding either DMSO as a negative control, or an inhibitor panobinostatat 100×IC50 concentration as a positive control, or serially diluted Compound 1. The cultures were incubated for 168 or 144 hours after which the number of viable organoids in each test well was assessed respectively using one of two detection methods: CTG or staining with calcein-AM followed by imaging and colony counting. Colony count or viability of cells treated with compound 1 was expressed as a percent of the negative control. Aggregated Percent of Control values were plotted against the corresponding Compound 1 concentration and the absolute IC50 value was determined from a non-linear regression curve as the concentration where inhibition was 50% of the control.

[4] = tested on: gene expression (PNUTS, ANK1, IBA57, SOWAHD, MF12-AS1, CECR1); experiment: RNA-seq analysis of pharmacodynamic biomarkers in diffuse large B-Cell Lymphoma xenografts; assay type: in vivo
Excerpt: RNA-seq and ChIP-seq analyses were employed to identify potential clinical pharmacodynamic (PD) biomarkers as molecular indicators for monitoring the effects of treatment with Compound 1.
[…] In the ChIP-seq analysis, 65 genes were identified to show direct KDM4C promoter occupancy.

H3K36me3 = experiment: dose-dependent inhibition of histone demethylase, H3K36me3 immunoblot; assay type: cell-based; settings: FIG. 6
Procedure: FIG. 6 illustrates the dose-dependent inhibition of histone demethylase by Compound 1. Left Panel: Representative immunoblot showing change in staining intensity for actin (red bands) and H3K36me3 (green bands) in response to Compound 1 at various concentrations. Right Panel: Normalized ratio of band intensities for H3K36me3 and actin versus the concentration of Compound 1 (μM). (mean IC50±SD value−0.085±0.004 μM).

[5] = tested on: tumorigenic CD44^High;EpCAM^+ cells of SU60 xenograft tumors; experiment: flow cytometry analysis of tumorigenic cell population after treatment of SU60 xenograft tumors; assay type: in vivo; settings: NSG female mice, 40 mg/kg PO QD x21
Procedure: The ability of Compound 1 to affect tumorigenic potential was analyzed by flow cytometry analysis of the tumorigenic cell population and functional in vivo tumorigenicity assay (limiting dilution assay).
To assess the effect of Compound 1 on tumorigenic cell population, Compound 1 was used to treat SU60 xenograft tumors. NSG female mice engrafted with SU60 cells (7 mice each group) were administered Compound 1 at 40 mg/kg PO QD×21. The day after the last dose, three tumors nearest to the mean size from each group were dissociated and the single cells were used to perform: 1) flow cytometry analysis of the tumorigenic cell population and 2) functional in vivo tumorigenicity assay (limiting dilution assay). Flow Cytometry Analysis of Tumorigenic Cell Population after Compound 1 Treatment
The proportion of tumorigenic CD44^High;EpCAM^+ cells in the cell population was quantified by flow cytometry. […] Flow cytometry analysis performed on single cell isolated from 3 vehicle-treated and 3 Compound 1-treated tumors. P-value was determined with unpaired Student T-test.

KDM4 [6] = experiment: biochemical activities (KDM4 inhibition); settings: KDM4 isoforms, FIG. 1
KDM4 [7] = experiment: inhibition of H3K9me3 demethylation, TR-FRET LANCE detection; assay type: biochemical; settings: in the presence of α-KG
Procedure: Inhibition of […] demethylation was measured at various Compound 1 concentrations in the presence of α-KG using time-resolved fluorescence-based (TR-FRET) LANCE® detection.

[8] = tested on: colorectal cancer organoid PDX models; experiment: culture-based viability inhibition assay, colorectal cancer organoid PDX models; assay type: cell-based; settings: for Sensitive to Compound 1 (models sensitive/tested): sensitive = IC50<1 μM
Procedure: as §1

[9] = tested on: SU106 patient-derived colon cancer organoid model; experiment: organoid colony formation assay, SU106; assay type: cell-based, human
Procedure: as §2, §3

[10] = MSI colorectal cancer PDX models
[11] = MSS colorectal cancer PDX models
[12] = in vivo at 2.5, 5, 7.5, 15 and 50 mg/kg, dose-dependent
[13] = MSS (Organoid) colorectal cancer models

Q: What does the source list for `CC(C)c1ccc(N(C)c2ccc3c(c2)OCC[C@H]3CNc2cnccc2C(=O)O)cc1` [Compound 1, 3-({[(4R)-7-{methyl[4-(propan-2-yl)phenyl]amino}-3,4-dihydro-2H-1-benzopyran-4-yl]methyl}amino)pyridine-4-carboxylic acid]?
A: change in the proportion of progenitor-like cells ([1]; p=0.01): significant reduction; change in number of intermediate-like and differentiated-like cells ([1]; p=0.07): increase was not significant; IC50 [2, 10]: 0.001 to 0.014 µM; Sensitive to Compound 1 (models sensitive/tested) [2, 10]: 5 out of 5 and 5/5; IC50 [2, 11]: 0.003 to 0.27 µM; Sensitive to Compound 1 (models sensitive/tested) [2, 11]: 4 out of 8 and 4/8; IC50 ([3]; FS53 human breast carcinoma model): 13.6 µM; IC50 ([3]; FS53 human breast carcinoma organoid, 144 hrs, Colony Counts): 13.6 µM; number of genes up- or downregulated ≥2-fold ([4]; RNA-seq, 37.3 mg/kg, diffuse large B-Cell Lymphoma xenografts models): 326; change of PNUTS, ANK1, and IBA57 gene expression [4, 12]: downregulated; change of SOWAHD, MF12-AS1, and CECR1 gene expression [4, 12]: upregulated; mean IC50±SD, H3K36me3/actin band intensity ratio (H3K36me3): 0.085 ± 0.004 µM; reduction of the proportion of tumorigenic cells (CD44^High;EpCAM^+) compared to vehicle control [5]: 2.5 fold; biochemical activities (KDM4 [6]): potent PAN KDM4 inhibitor; mode of inhibition of H3K9me3 demethylation (KDM4 [7]): reversible and competitive inhibition; IC50 ([8]; MSI (Organoid) colorectal cancer models, read-out: IC50 (range over sensitive models)): 0.022 to 0.149 µM; Sensitive to Compound 1 (models sensitive/tested) ([8]; MSI (Organoid) colorectal cancer models): 3 out of 3 and 3/3; Sensitive to Compound 1 (percent of models) [8, 13]: (0%); IC50 ([8]; MSS (Organoid) colorectal cancer models, read-out: IC50): > 10 µM; Sensitive to Compound 1 (models sensitive/tested) [8, 13]: 0 out of 3 and 0/3; IC50 ([9]; Homo sapiens, SU106 colorectal carcinoma model): > 10 µM; IC50 ([9]; SU106 human colorectal carcinoma organoid, 144 hrs, Colony Counts): > 10 µM
